From US12453750B2, “Fixed dose combination of cannabinoids and medical mushrooms for prevention and treatment of cancer, inflammatory or immune-mediated inflammatory diseases” (priority 2019, dated 2025)

Experiments:
[1] = test system: NO secretion from RAW cells; experiment: Nitric Oxide (NO) test (Griess test) on supernatants of LPS-stimulated RAW cells; assay type: cell-based, Murine; conditions: for concentration effective in inhibiting NO secretion without affecting cells' viability / Cannabinoid NO: RAW cells 24 h; for % inhibition of NO secretion: vs vehicle
Description: • a. ⅔ of total final volume of warm water for injection (42° C.) was added to the dry mushroom powder. • b. The suspension was vortexed and centrifuged (4100 rpm, RT, 5 min). • c. The supernatant containing the water-soluble fraction was separated into a clean tube. • d. 5% of total final volume of EtOH was added to the pellet and vortexed to extract ethanol-soluble fractions. Water was added q.s. ad. final volume. • e. The suspension was vortexed and centrifuged. The resulting supernatant was combined and centrifuged again to remove debris, yielding a final concentration of 50 mg/ml. • f. The resulting solution was passed through a cell strainer (40-70 micron). • g. Two additional stocks were prepared in vehicle (5% EtOH in WFI): 10 mg/ml and 2 mg/ml. • h. All Test items/Vehicle were added to the cells at 4 μL into 96 μL medium, yielding final working concentrations of: 2 mg/ml, 0.4 mg/ml, and 0.08 (in 0.2% EtOH, 4% WFI). […] Cell Medium Formulations:
(§1) • a. Cells were harvested at 80% confluence, counted and re-suspend to final concentration of 1×10^6/ml in growth medium. • b. […] Cells were incubated (37±10 C, 5% CO2) for 18-24 hrs. • d. Growth medium was removed; […] medium and 4 μL Vehicle, Test Item, and Controls were added. • e. The content of all wells was mixed by pipetting up and down three times. • f. Plates were incubated for 2 h (37±1° C., 5% CO2). • g. LPS (10 μl, final concentration of 100 ng/ml LPS) was added to all wells. • h. The content of all wells was mixed by pipetting up and down three times. • i. Plates were incubated for 24±2 h (37±1° C., 5% CO2). • j. Medium was collected from the 96-microtiter plate: 50 μl for NO secretion assay and the rest was stored in −20° C. for cytokine secretion assay.
Cell Proliferation and Viability (XTT Assay) • a. XTT reaction solution was prepared. • b. 50 μl of the XTT reaction solution was added into each well. • c. Plates were incubated in a humidified atmosphere (e.g. 37° C., 5% CO2). • d. The plates were shaken gently to evenly distribute the dye in the wells. • e. The absorbance of the samples was measure against a background control as a blank with a spectrophotometer (ELISA reader) at a wavelength of 450 nm. • f. In order to measure reference absorbance (to measure non-specific readings), a wavelength of 620 nm was used to subtract from the 450 nm measurement. • g. […] Nitric Oxide (NO) Test (Griess Test) • a. The Sulfanilamide Solution and NED Solution were allowed to equilibrate to room temperature (15-30 minutes). • b. 1 ml of a 100 μM nitrite solution was prepared by diluting the provided 0.1M Nitrite Standard 1:1,000 in culture medium. • c. 2 columns (16 wells) were designate in the non-binding 96-well plate for the Nitrite Standard reference curve. 50 μl of assay medium were dispensed into the wells in rows B-H (FIG. 1). • d. 100 μl of the 100 μM nitrite solution was added to the remaining 2 wells in row A. serial twofold dilutions (50 μl/well) were performed immediately in duplicate down the plate to generate the Nitrite Standard reference curve (100, 50, 25, 12.5, 6.25, 3.13 and 1.56 μM), discarding 50 μl from the 1.56 μM set of wells • e. 50 μl of the Sulfanilamide Solution were dispensed to all experimental samples and wells containing the dilution series for the Nitrite Standard reference curve. • f. The plate was incubated 5-10 minutes at room temperature, protected from light. • g. 50 μl of the NED Solution was dispensed to all wells. • h. The plate was incubated 5-10 minutes at room temperature, protected from light. • i. Absorbance was measured within 30 minutes in a plate reader with a filter between 520 nm and 550 nm. • j.

[2] = test system: IL-6 secretion from RAW cells; experiment: IL-6 secretion, Multiplex analysis of medium of LPS-stimulated RAW cells; assay type: cell-based, Murine; conditions: CBD (15 μM)
Description: as §1
(§2) Cytokine Secretion • a. Reishi, Cordyceps M, Agaricus blazei, and Cordyceps Cs-4 were incubated with […] at 0.08-2 mg/ml for 24 hours. • b. Medium from cells was collected for Multiplex analysis (CCL3/MIP1α, IL-6, IL-1β, TNFα, IL-10 and IL-6) in duplicates. • c.
(§3) Cytokine Secretion • a. CBD (15 μM) and THC (20 μM) were incubated with […]. • b. Medium from cells was collected for Multiplex analysis (CCL3/MIP1α, IL-6, IL-1β, TNFα, IL-10 and IL-6) in duplicates. • c. […] IL-6 secretion: • i. […] TNFα secretion: • i.
(§4) Cytokine Secretion • a. […]

[3] = test system: TNFα secretion from RAW cells; experiment: TNFα secretion, Multiplex analysis of medium of LPS-stimulated RAW cells; assay type: cell-based, Murine; conditions: CBD (15 μM), THC (20 μM)
Description: as §1, §2, §3, §4

PANC-1 cells = experiment: Viability assay (XTT) of PANC-1 cells; assay type: cell-based, Human; conditions: 72 hours; for % viability at the potent concentrations: CBD 40-100 μM, THC 100-375 μM, no dose response
Description: (§5) • a. PANC-1 cells (Human Pancreatic Cancer cells) (American Type Culture Collection, Rockville, MD, USA). • b. EGL-1 cells (Human extrahepatic cholangio carcinoma) Cell Growth:
Growth medium for PANC-1/EGL-1 cells: Dulbecco's Modified Eagle Medium (DMEM) high glucose supplemented with 10% Fetal Bovine Serum (FBS), 2 mM L-Glutamine, and 1% Penicillin-Streptomycin solution (PS).
Assay medium for PANC-1: Assay medium contained only 1% FBS.
(§6) • a. Cells were harvest at 80% confluence, counted and re-suspend to final concentration of 75×10^3/ml (PANC-1) or 50×103 (EGL-1) in growth medium. • b. Panc-1 cell suspension was seeded in 96-well microtiter plate at 7500 cells/100 μl/well and EGL-1 cell suspension was seeded in 96-well microtiter plate at 5000 cells/l100p/well. • c. Cells were incubated (37±10 C, 5% CO2) for 18-24 hrs. • d. Growth medium was removed; 80 μL assay medium and 20 μL Vehicle, Test Item, and Controls were added. […] The content of all wells was mixed by pipetting up and down three times. • f. Plates were incubated for 72±2 h (37±1° C., 5% CO2). • g. The medium on all plates was replaced with 100 μl culture medium. XTT Assay • a. XTT reaction solution was prepared. • b. 50 μl of the XTT reaction solution was added into each well. • c. Plates were incubated in a humidified atmosphere (e.g. 37° C., 5% CO2). • d. The plates were shaken gently to evenly distribute the dye in the wells. • e. The absorbance of the samples was measure against a background control as a blank with a spectrophotometer (ELISA reader) at a wavelength of 450 nm. • f. In order to measure reference absorbance (to measure non-specific readings), a wavelength of 620 nm was used to subtract from the 450 nm measurement. • g. The idle absorbance of the cells was 0.5-1.5 in all wells.

EGL-1 cells = experiment: Viability assay (XTT) of EGL-1 cells; assay type: cell-based, Human; conditions: 72 hours; for % viability at the potent concentrations: CBD 40-100 μM, THC 100-375 μM
Description: as §5
Growth medium for EGL-1 cells: RPMI-1640 medium supplemented with 10% Fetal Bovine Serum (FBS), 2 mM L-Glutamine, and 1% Penicillin-Streptomycin solution (PS).
Assay medium for EGL-1: Assay medium contained only 1% FBS in DMEM low glucose (1 g/L)
as §6

[4] = test system: NCl-H292 (lung cancer) cells; conditions: D9-THC at 100-300 nM; cited from earlier work
[5] = test system: U373-MG (glioblastoma) cells; conditions: D9-THC at 100-300 nM; cited from earlier work
cancer cells = conditions: D9-THC (4-10 µM); cited from earlier work
[6] = Mus musculus, read-out: % inhibition of NO secretion

Row | SMILES | NO ([1]; CBD 15 μM alone) [µM] | inhibition at 15 µM [1, 6] [%] | concentration effective in inhibiting NO secretion without affecting cells' viability [1] [µM] | Cannabinoid NO ([1]; cannabinoid 15 μM) [µM] | % inhibition of NO secretion ([1]; cannabinoid 15 μM) [%] | Cannabinoid NO ([1]; cannabinoid 20 μM) [µM] | % inhibition of NO secretion ([1]; cannabinoid 20 μM) [%] | effect on IL-6 secretion (in words) [2] | effect on TNFα secretion (in words) [3] | concentration at which potent (viability) (PANC-1 cells) [µM] | % viability at the potent concentrations (PANC-1 cells) [%] | concentration at which potent (viability) (EGL-1 cells) [µM] | % viability at the potent concentrations (EGL-1 cells) | inhibition at 20 µM [1, 6] [%] | NO ([1]; THC 20 μM alone) [µM] | increase in the proliferation rate [4] [fold] | increase in the proliferation rate [5] [fold] | number of apoptotic cells (cancer cells)
1 | C=C(C)[C@@H]1CCC(C)=C[C@H]1c1c(O)cc(CCCCC)cc1O [CBD, cannabidiol] | 6.67 | 40.2 | 15 to 20 | 11.8 | 38.6 | 5.07 | 73.6 | did not affect IL-6 secretion | did not affect TNFα secretion | 40 to 100 | 35 | 40 to 100 | 15-30% |  |  |  |  | 
2 | CCCCCc1cc(O)c2c(c1)OC(C)(C)[C@@H]1CCC(C)=C[C@@H]21 [THC, Δ^9-tetrahydrocannabinol] |  |  | 20 |  |  | 8.77 | 54.4 |  | did not affect TNFα secretion | 100 to 375 | 35 | 100 to 375 | 15% | 66.7 | 3.72 | 1.2 | 2 | 30-80%
